Laboratory results published in publication PMC7327383, “The affinity and selectivity of α‐adrenoceptor antagonists, antidepressants, and antipsychotics for the human α1A, α1B, and α1D‐adrenoceptors” (Pharmacology Research & Perspectives, 2020).
Where two headings read alike, the source gives them in different places.

Tests used:
human α1B-adrenoceptor = biological target: T1, human α1B-adrenoceptor (Homo sapiens, UniProt P35368); test: [3H]prazosin whole-cell competition binding, CHO-α1B cells; settings: for Kd: read-out: Log KD α1B (converted); for selectivity α1B vs α1D: ratio, 1 = no selectivity for a subtype over another
T1 construct: CHO cells stably expressing either the full‐length human α1A, α1B, or α1D‐adrenoceptor
T1 sequence (P35368 1-520): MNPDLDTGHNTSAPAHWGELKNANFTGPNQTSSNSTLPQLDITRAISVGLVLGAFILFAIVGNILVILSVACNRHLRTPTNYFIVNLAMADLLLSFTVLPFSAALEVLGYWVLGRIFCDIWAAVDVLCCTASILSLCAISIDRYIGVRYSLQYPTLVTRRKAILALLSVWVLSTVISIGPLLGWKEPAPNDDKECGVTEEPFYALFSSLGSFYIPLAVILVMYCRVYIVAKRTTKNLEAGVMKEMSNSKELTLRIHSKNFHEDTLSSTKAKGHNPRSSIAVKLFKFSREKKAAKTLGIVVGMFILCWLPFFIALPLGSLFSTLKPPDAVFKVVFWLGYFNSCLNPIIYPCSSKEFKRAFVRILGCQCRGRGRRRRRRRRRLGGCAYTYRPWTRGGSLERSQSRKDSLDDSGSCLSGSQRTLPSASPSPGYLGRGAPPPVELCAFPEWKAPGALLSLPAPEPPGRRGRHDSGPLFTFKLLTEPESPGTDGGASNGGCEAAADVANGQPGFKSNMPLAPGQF

human α1A-adrenoceptor = biological target: T2, human α1A-adrenoceptor (Homo sapiens, UniProt P35348); test: [3H]prazosin whole-cell competition binding, CHO-α1A cells; settings: for selectivity α1A vs 1D: ratio, 1 = no selectivity for a subtype over another
T2 construct: CHO cells stably expressing either the full‐length human α1A, α1B, or α1D‐adrenoceptor
T2 sequence (P35348 1-466): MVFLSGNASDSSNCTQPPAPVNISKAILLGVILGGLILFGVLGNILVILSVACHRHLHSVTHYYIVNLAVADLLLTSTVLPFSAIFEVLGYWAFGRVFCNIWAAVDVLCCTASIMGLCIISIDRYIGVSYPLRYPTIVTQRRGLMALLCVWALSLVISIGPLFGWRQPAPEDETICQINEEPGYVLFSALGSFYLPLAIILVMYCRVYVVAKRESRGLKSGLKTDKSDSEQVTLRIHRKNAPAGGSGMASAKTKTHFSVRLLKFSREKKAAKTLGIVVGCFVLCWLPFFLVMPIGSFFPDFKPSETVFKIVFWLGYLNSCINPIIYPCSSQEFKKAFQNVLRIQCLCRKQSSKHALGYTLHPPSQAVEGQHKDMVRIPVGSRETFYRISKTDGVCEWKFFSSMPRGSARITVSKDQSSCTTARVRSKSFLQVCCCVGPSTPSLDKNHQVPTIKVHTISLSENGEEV

[1] = biological target: T3, full-length human α1D-adrenoceptor (Homo sapiens, UniProt P25100); test: [3H]prazosin whole-cell competition binding, CHO-α1D cells; settings: for Selectivity ratio α1B vs α1D / Selectivity ratio α1A vs α1D: ratio of KD values, higher α1D affinity (site 1 KD); for Log KD α1D site 2: low-affinity component of two-component curve
T3 sequence (P25100 1-572): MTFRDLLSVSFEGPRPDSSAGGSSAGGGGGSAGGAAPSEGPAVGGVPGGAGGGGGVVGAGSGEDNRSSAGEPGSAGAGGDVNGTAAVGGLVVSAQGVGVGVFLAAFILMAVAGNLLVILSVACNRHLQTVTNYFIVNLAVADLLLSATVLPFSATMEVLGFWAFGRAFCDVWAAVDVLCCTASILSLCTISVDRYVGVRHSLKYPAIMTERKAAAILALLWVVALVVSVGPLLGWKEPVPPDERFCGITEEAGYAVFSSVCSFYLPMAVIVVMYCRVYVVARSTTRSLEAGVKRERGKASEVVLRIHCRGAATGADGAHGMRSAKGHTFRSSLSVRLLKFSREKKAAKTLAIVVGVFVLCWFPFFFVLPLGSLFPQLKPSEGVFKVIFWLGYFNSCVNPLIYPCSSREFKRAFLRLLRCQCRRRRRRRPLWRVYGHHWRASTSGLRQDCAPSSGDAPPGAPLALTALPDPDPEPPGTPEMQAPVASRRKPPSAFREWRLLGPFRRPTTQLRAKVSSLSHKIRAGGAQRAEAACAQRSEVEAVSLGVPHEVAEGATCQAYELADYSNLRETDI

[2] = single-component inhibition curve, given as log KD (negative), mean ± SE mean
[3] = Log KD α1D, single-component inhibition curve, given as log KD (negative), mean ± SE mean
[4] = ratio of KD values, higher α1A affinity, 1.0 under vs = none
[5] = ratio of KD values, printed under α1A = higher α1A affinity, 1.0 under vs = none
[6] = single-component inhibition curve, given as log KD (negative), mean ± SE mean, read-out: Log KD α1A (converted)
[7] = percentage of inhibition through first component, control
[8] = two-component inhibition curve, proportion of site 1
[9] = log KD from 3H-prazosin whole cell binding, CHO cells, mean ± s.e.mean

| Kd [1, 3] [nM] | selectivity α1B vs α1D (human α1B-adrenoceptor) | Selectivity ratio α1A vs α1D (human α1A-adrenoceptor; [4]) [fold] | Selectivity ratio α1A vs α1B (human α1A-adrenoceptor; [5]) [fold] | Kd (human α1A-adrenoceptor; [6]) [nM] | Selectivity ratio α1B vs α1D [1] [fold] | Structure (SMILES) | Kd (human α1B-adrenoceptor; [2]) [nM] | % site 1 α1D [1, 8] | further results |
| --- | --- | --- | --- | --- | --- | --- | --- | --- | --- |
| 87.1 | 1.7 | 8.1 | 14 | 10.7 | 1.7 | COc1ccccc1N1CCN(CC(O)COc2cccc3ccccc23)CC1 (centres unmarked) [Naftopidil] | 151 |  |  |
| 10700 | 5.0 | 3.2 | 16 | 3390 | 5.0 | CCC1(C2=NCCN2)Cc2ccccc2O1 (centres unmarked) [Efaroxan] | 53700 |  |  |
| 9550 | >10 |  | >4.0 | 25100 | >10 | CCn1ccnc1CC1COc2ccccc2O1 (centres unmarked) [Imiloxan] |  |  | selectivity α1A vs 1D (human α1A-adrenoceptor): 2.6; Selectivity ratio α1A vs α1D [1]: 2.6 fold |

The remaining lines, values behind:

| Structure (SMILES) | Kd [1, 3] [nM] | selectivity α1B vs α1D (human α1B-adrenoceptor) | Selectivity ratio α1A vs α1D (human α1A-adrenoceptor; [4]) [fold] | Selectivity ratio α1A vs α1B (human α1A-adrenoceptor; [5]) [fold] | Kd (human α1A-adrenoceptor; [6]) [nM] | Selectivity ratio α1B vs α1D [1] [fold] | Kd (human α1B-adrenoceptor; [2]) [nM] | % site 1 α1D [1, 8] | further results |
| --- | --- | --- | --- | --- | --- | --- | --- | --- | --- |
| CNCCC=C1c2ccccc2CCc2ccccc21 [Nortriptyline] | 1550 |  |  |  |  |  | 851 |  | Selectivity ratio α1B vs α1D (human α1B-adrenoceptor): 1.8 fold; Selectivity ratio α1A vs α1B (human α1A-adrenoceptor): 47 fold; Selectivity ratio α1A vs α1D (human α1A-adrenoceptor): 85 fold; Kd (human α1A-adrenoceptor; Log KD α1A, single-component inhibition curve, given as log KD (negative), mean ± SE mean): 18.2 nM |
| OCCN1CCN(CCC=C2c3ccccc3Sc3ccc(C(F)(F)F)cc32)CC1 [Flupenthixol] | 110 |  | 25 | 7.6 | 4.47 |  | 33.9 |  | Selectivity ratio α1B vs α1D (human α1B-adrenoceptor; ratio of KD values, higher α1B affinity, 1.0 under vs = none): 3.2 fold |
| COc1cc2nc(N3CCN(C(=O)c4ccco4)[C@H]4CCCC[C@H]43)nc(N)c2cc1OC (racemic) [Cyclazosin] |  | 15 |  | 1.6 | 1.29 | 15 | 2.09 | -9.87 ± 0.06 -7.44 ± 0.10 56.8 ± 3.4% site 1 | selectivity α1A vs 1D (human α1A-adrenoceptor): 9.5; Kd ([1]; Log KD α1D site 1, high-affinity component of two-component curve, control, used for selectivity): 0.135 nM; Kd ([1]; affinity, subtype not given, by Table 1 reached at α1D site 1): < 0.25 nM; Log KD α1D site 2 ([1]; control): −7.44 ± 0.10; % site 1 α1D [1, 7]: 56.8 ± 3.4% site 1; Selectivity ratio α1A vs α1D [1]: 9.5 fold |
| CC(C)OC(=O)c1cc2c(OCC(O)CNC(C)(C)C)cccc2[nH]1 (centres unmarked) [SDZ21009] |  |  | 1.4 | >17 |  | >12 |  |  | selectivities α1B vs α1D (human α1B-adrenoceptor; selectivity ratio, 1 = no selectivity for a given receptor subtype over another): >12; Log IC50 α1B (human α1B-adrenoceptor; top concentration inhibited some but 50% or less of specific binding, printed as log IC50): Log IC50 > −4; Log KD α1A (human α1A-adrenoceptor; [2]): −5.24 ± 0.07; Log KD α1D [1, 2]: −5.09 ± 0.18 |
| COc1cccc(OC)c1OCCNCC1CSc2ccccc2O1 (centres unmarked) [Benoxathian] |  |  |  |  |  |  |  | -7.91 ± 0.10 -5.62 ± 0.19 62.5 ± 3.4% site 1 | Log KD α1B (human α1B-adrenoceptor; [2]): −7.32 ± 0.03; Log KD α1A (human α1A-adrenoceptor; [2]): −9.08 ± 0.05; Log KD α1D site 1 ([1]; high-affinity component of two-component curve, control, used for selectivity): −7.91 ± 0.10; Log KD α1D site 2 ([1]; control): −5.62 ± 0.19; % site 1 α1D [1, 7]: 62.5 ± 3.4% Site 1 |
| CN(C)CCCN1c2ccccc2CCc2ccccc21 [Imipramine] | 1290 | 1.3 |  |  | 33.9 | 1.3 | 1740 |  | Selectivity ratio α1A vs α1B (human α1A-adrenoceptor): 51 fold; Selectivity ratio α1A vs α1D (human α1A-adrenoceptor): 38 fold |
| COc1ccccc1N1CCN(CC2CN3C(=O)N(C)c4ccccc4C3=N2)CC1 (centres unmarked) [2-MPMDQ] |  |  |  |  |  |  |  | 64.0 ± 2.1% | Log KD α1B (human α1B-adrenoceptor; [9]): -7.37 ± 0.04; Log KD α1A (human α1A-adrenoceptor; [9]): -9.06 ± 0.07 |
